Values quoted from earlier work as cited in patent US7288574B2, “Two-phase oxygenated solution and method of use” (priority 2001, dated 2007).

Details: equilibrium with air (pO2=0.21) at 77° F.

O=O [oxygen]
solubility limit of oxygen in water: approximately 8.3 mg/l
